{"source": "paper PMC7721897", "about": "“Metabolism and pharmacokinetics of a novel polyphenol fatty acid ester phloridzin docosahexaenoate in Balb/c female mice” (Scientific Reports, 2020)", "assay_in_all_cases": "Cellular uptake assay (UPLC-ESI-MS/MS of cell lysates)", "type_in_all_cases": "cell-based, human", "conditions_in_all_cases": "20 μM, 72 h", "key": {"MCF-10A cells": {"test_system": "MCF-10A cells", "description": "(§1) Figure 1 Conjugation of PZ with DHA increases the cellular uptake and stability of PZ and DHA. The cells were treated with 20 μM of PZ, DHA or PZ-DHA and cultured for 72 h at 37 °C. Cells were harvested and washed thoroughly using cold PBS. Cells were lysed in cold acetone containing 0.05 mg/mL quercetin, and cell lysates were collected by centrifugation and analyzed by using UPLC-ESI-MS/MS. (A) mean % cellular uptake of PZ, DHA and PZ-DHA. (B) fold increase in intracellular PZ and DHA when conjugated. ANOVA multiple means statistical comparison method was performed and differences among means were compared using Tukey’s test; *p < 0.05. (MDA-MB-231 p = 0.008; MDA-MB-468 p = 0.01; 4T1 p = 0.02; MCF-7 p = 0.01; MCF-10A p = 0.0005).\n(§2) Cells were seeded at a density of 3 × 10^5 cells (MDA-MB-231, MDA-MB-468, MCF-7, and MCF-10A) or 1 × 10^5 cells (4T1) /T-75 flask. The cells were cultured overnight to promote cell adhesion. Adherent cells were treated with a sub-cytotoxic concentration (20 μM) of PZ, DHA or PZ-DHA and cultured for 72 h at 37 °C. The supernatant was carefully removed, and cell monolayers were washed with cold PBS. Cells were harvested using TrypLE Express and washed thoroughly with cold PBS. […] The sample was analyzed using a UPLC/ESI/MS system. The percentage cell uptake of the total dose was quantified using standard curves of PZ (R^2 = 0.99), DHA (R^2 = 0.98) or PZ-DHA (R^2 = 0.99) made in methanol.\n(§3) PZ-DHA and/or PZ-DHA metabolites in malignant/non-malignant epithelial cell lysates, in vitro microsome enzyme reaction mixtures, and mouse serum aliquots were determined using UPLC-ESI–MS/MS instrument (Waters Limited, Mississauga, ON, Canada). All mass spectroscopic analyses were performed using mass scan (full-scan, identification of unknowns) and single ion monitoring (SIM; quantification of PZ, DHA, PZ-DHA, and quercetin) modes of a Waters H-class UPLC separations module coupled with a Micromass Quattro micro API MS/MS system and MassLynx V4.0 control software. […]"}, "MCF-7 cells": {"test_system": "MCF-7 cells", "description": "as §1, §2, §3"}, "MDA-MB-468 cells": {"test_system": "MDA-MB-468 cells", "description": "as §1, §2, §3"}}, "data": [{"smiles": "CC/C=C\\C/C=C\\C/C=C\\C/C=C\\C/C=C\\C/C=C\\CCC(=O)OC[C@H]1O[C@@H](Oc2cc(O)cc(O)c2C(=O)CCc2ccc(O)cc2)[C@H](O)[C@@H](O)[C@@H]1O", "note": "[PZ-DHA, phloridzin docosahexaenoate]", "values": [{"measurement": "PZ-DHA uptake and fold-increase in intracellular PZ and DHA versus the malignant cells", "setting": "MCF-10A cells", "value": "similar"}, {"measurement": "cellular uptake (as a % of the dose)", "setting": "MCF-7 cells", "value": 21, "unit": "%"}, {"measurement": "cellular uptake (as a % of the dose)", "setting": "MDA-MB-468 cells", "value": 50, "unit": "%"}]}]}
